In PubChem BioAssay (NCI) one finds TGI and GI50 data, which are given here for twelve compounds.

Several values for one entry are separate records, joined by “and”; a condition that tells them apart may be missing. Equal values may be shown once.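 Tested at 5 concentrations; 48 h exposure; 96-well plates; endpoints linearly interpolated, else capped at highest concentration. GI50 = concentration required for 50% inhibition of growth. Definition used: TGI = concentration required for complete inhibition of growth.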

Among the test systems are A498 renal; HL-60(TB) leukemia; HOP-92 NSCLC; K-562 leukemia; SF-268 CNS; SK-MEL-2 melanoma; SK-MEL-28 melanoma; SW-620 colon; 786-0 renal; PC-3 prostate.
Common to all, as to assay: growth of human tumour cells (NCI), 48 h

Regarding `COc1ccc(C2COc3c(ccc(O)c3C)C2)cc1OC` (configuration not stated), the TGI with A498 renal was > 31.7 µM; in the experiment on HL-60(TB) leukemia it was 140 µM; in the experiment with HOP-92 NSCLC, > 186 µM; in the experiment with K-562 leukemia it was > 200 µM; in the experiment on SF-268 CNS, > 200 µM; in the experiment on SK-MEL-2 melanoma, 154 µM. In addition, the TGI in the experiment on SK-MEL-28 melanoma is > 196 µM; in the experiment with SW-620 colon it was > 200 µM.

As for `CCOC(=O)c1c(OCC)[nH]c(=O)c(C(c2cccs2)c2c(O)c(C(=O)OCC)c(OCC)[nH]c2=O)c1O`, the TGI in the experiment with 786-0 renal was 59.3 µM; in the experiment with A498 renal, 23.5 µM; with HL-60(TB) leukemia, 40.7 µM; with HOP-92 NSCLC, 48.2 µM; with PC-3 prostate, > 100 µM; with SF-268 CNS, 35 µM. In addition, the TGI in the experiment on SK-MEL-2 melanoma was 29.9 µM; in the experiment with SK-MEL-28 melanoma it was 43.6 µM; in the experiment with SW-620 colon, 34.1 µM.

Turning to `Cc1nc2ccc(S(=O)(=O)Nc3nccs3)cc2c(=O)n1NS(=O)(=O)c1nccs1`, the TGI with A498 renal, with HL-60(TB) leukemia, in the experiment with HOP-92 NSCLC, in the experiment on K-562 leukemia, with PC-3 prostate and in the experiment on SF-268 CNS was > 100 µM throughout. Moreover, the TGI in the experiment with SK-MEL-2 melanoma, with SK-MEL-28 melanoma and with SW-620 colon was > 100 µM each time.

As to `COC(=O)C1=C(OC)[C@H]2C#C/C=C\C#C[C@@H]3Nc4c(cc(O)c5c4C(=O)c4ccccc4C5=O)[C@]24O[C@@]34[C@H]1C`, the TGI in the experiment with 786-0 renal is < 0.01 µM; with A498 renal, < 0.01 µM; with HL-60(TB) leukemia, < 0.01 µM; in the experiment with HOP-92 NSCLC it was < 0.01 µM; in the experiment with K-562 leukemia it was 0.0139 µM; in the experiment on PC-3 prostate, 0.138 µM. For the same compound, the TGI in the experiment with SF-268 CNS is < 0.0341 µM; with SK-MEL-2 melanoma, 0.206 µM; in the experiment on SW-620 colon it was 0.0486 µM.

As to `COc1ccc(CNc2nc(NC3CCCCC3)nc(NC3CCCCC3)n2)cc1`, the TGI was 70.3 µM with 786-0 renal; > 100 µM in the experiment on HL-60(TB) leukemia; > 100 µM with HOP-92 NSCLC; > 100 µM with K-562 leukemia; > 100 µM in the experiment with PC-3 prostate; > 100 µM with SF-268 CNS. Further, the TGI was 80.3 µM with SK-MEL-2 melanoma, > 100 µM in the experiment on SK-MEL-28 melanoma and 50 µM in the experiment on SW-620 colon.

On to `CN(C)CCCNc1ccc2ncn3c4ccc(O)cc4c(=O)c1c23`, for which the TGI is 14.7 µM in the experiment on 786-0 renal; 7.6 µM in the experiment with A498 renal; 13.1 µM with HL-60(TB) leukemia; 15.3 µM with HOP-92 NSCLC; 28 µM in the experiment on K-562 leukemia; 14.4 µM with PC-3 prostate. In addition, the TGI in the experiment with SF-268 CNS was found to be 13.5 µM; with SK-MEL-2 melanoma it was 19.6 µM; in the experiment with SK-MEL-28 melanoma, 18.1 µM; in the experiment on SW-620 colon, 16.4 µM.

As for `O=C(CBr)c1ccc2cc(Br)c3ccccc3c2c1`, the TGI in the experiment with 786-0 renal was > 100 µM; in the experiment with HL-60(TB) leukemia, 69.6 µM; in the experiment with HOP-92 NSCLC, 45.7 µM; with K-562 leukemia it was 77.6 µM; in the experiment on PC-3 prostate it was 53.1 µM; with SF-268 CNS, 47 µM. The figures for the TGI in the experiment with SK-MEL-2 melanoma, with SK-MEL-28 melanoma and in the experiment on SW-620 colon were 45.1 µM, 57.5 µM and 74.4 µM, respectively.

As for `C[n+]1c2ccccc2c(NC(CCCN=C(N)N)C(=O)O)c2ccccc21` (configuration not stated), the TGI in the experiment with 786-0 renal, in the experiment with A498 renal, with HL-60(TB) leukemia, in the experiment with HOP-92 NSCLC, in the experiment with K-562 leukemia and in the experiment with SF-268 CNS was > 100 µM in each case. For the same compound, the TGI with SK-MEL-2 melanoma and in the experiment on SW-620 colon was > 100 µM throughout.

`O=C(N[C@@H](Cc1coc2ccccc12)B(O)O)[C@@H]1C[C@H]2CC[C@@H]1O2`: the GI50 in the experiment with A498 renal was 0.702 µM; with HL-60(TB) leukemia, 3.05 µM; in the experiment on HOP-92 NSCLC, 5.06 µM; with K-562 leukemia, 9.99 µM; with PC-3 prostate it was 41.2 µM; in the experiment with SF-268 CNS, 9.62 µM. Besides, the GI50 in the experiment on SK-MEL-2 melanoma was 6.08 µM; in the experiment on SK-MEL-28 melanoma, 4.5 µM; in the experiment on SW-620 colon it was 3.3 µM. In addition, the TGI with A498 renal was 5.73 µM; in the experiment with HL-60(TB) leukemia, > 100 µM; with HOP-92 NSCLC it was 80.8 µM; with K-562 leukemia, > 100 µM; in the experiment with PC-3 prostate, > 100 µM; with SF-268 CNS, > 100 µM. In addition, the TGI in the experiment on SK-MEL-2 melanoma, with SK-MEL-28 melanoma and in the experiment on SW-620 colon was > 100 µM each time.

As for `COc1ccc(/C=N/n2cnc3c(c2=O)SC(=C(C#N)C#N)N3c2ccccc2)cc1`, the TGI in the experiment with HL-60(TB) leukemia, in the experiment with HOP-92 NSCLC, with K-562 leukemia, in the experiment with SF-268 CNS, with SK-MEL-28 melanoma and with SW-620 colon was > 100 µM each time.

On to `CCC1CC(O)c2c(O)c3c(c(O)c2C1O)C(=O)c1cccc(O)c1C3=O` (configuration not stated) (tested in a mixture with another compound), for which the TGI with 786-0 renal is 0.758 µM and 1.22 µM; with A498 renal it was 0.03 µM; in the experiment with HL-60(TB) leukemia, 0.0866 µM and 0.0744 µM; with K-562 leukemia, 0.0319 µM; in the experiment on PC-3 prostate, 0.0749 µM and 0.159 µM; with SF-268 CNS, 0.501 µM. Also, the TGI in the experiment with SK-MEL-2 melanoma is 0.0457 µM; with SK-MEL-28 melanoma it was 0.0712 µM and 0.0612 µM; in the experiment on SW-620 colon, 0.0707 µM and 0.128 µM. Moreover, the GI50 in the experiment on HL-60(TB) leukemia is 0.0177 µM.

As for `C=CCCC1(C)CCCNC1=S` (configuration not stated), the TGI in the experiment on A498 renal, in the experiment with HL-60(TB) leukemia, in the experiment on HOP-92 NSCLC, in the experiment with K-562 leukemia, in the experiment on SK-MEL-2 melanoma and in the experiment on SK-MEL-28 melanoma was > 100 µM in each case. Also, the TGI in the experiment on SW-620 colon was > 100 µM.
